Reference: ChEMBL document CHEMBL1149720, “Homoscalarane sesterterpenes from Lendenfeldia frondosa” (J Nat Prod, 1992)
The source made the active and inactive calls. The calls are words filed in the database; no cut-off is given here.

Experiments:
[1] = Inhibition of PLA2 activity at 8 uM
[2] = Inhibition of PLA2 activity at 4 uM

| Compound | Activity [1] | also measured |
| --- | --- | --- |
| COC(=O)[C@H]1[C@H](C(C)=O)[C@@H](OC(C)=O)C[C@H]2[C@]3(C)CC[C@H]4C(C)(C)CCC[C@]4(COC(C)=O)[C@H]3C[C@@H](O)[C@]12C | inactive |  |
| CC1=C(CC/C(C)=C/CCC2=CC[C@H](C3=CC(=O)O[C@H]3O)O[C@H]2O)C(C)(C)CCC1 |  | inhibition [2]: 100% |
| CC(=O)OC[C@]12CCCC(C)(C)[C@@H]1CC[C@]1(C)[C@@H]2C[C@@H](O)[C@]2(C)[C@H]3C(=O)O[C@@H](C)[C@@H]3[C@@H](OC(C)=O)C[C@@H]12 | inactive |  |
| CC(=O)OC[C@]12CCCC(C)(C)[C@@H]1CC[C@]1(C)[C@@H]2C[C@H]2OC(=O)[C@H]3[C@H](C(C)=O)[C@H](OC(C)=O)C[C@@H]1[C@]23C |  | inhibition [1]: 35% |
